Source: US20200045969A1, “Fungicidal Composition and Fungicide for Controlling Asparagus Stem Blight” (Institute of Plant Protection, Jiangxi Academy of …, priority 2018, published 2020)

System: Phomopsis asparagi (Sacc.)
Experiment: laboratory toxicity, mycelium growth rate method
Type: cell-based
Settings: for ATI (actually-determined toxicity index): (EC50 of standard agent/EC50 of agent to be tested)×100, difenoconazole = 100; for EC50: Phomopsis asparagi, pathogenic fungi of asparagus stem blight collected from the field
Method: According to Sun Yunpei method, the synergistic effect of the mixed drug was evaluated based on a cotoxicity coefficient (CTC). […] The subjects to be tested were pathogenic fungi of asparagus stem blight collected from the field. The determination method was conducted with reference to the mycelium growth rate method in “Technical regulation on agricultural construction project acceptance NY/T 1156.6-2006 of the People's Republic of China”.

| Compound | ATI (actually-determined toxicity index) | EC50 |
| --- | --- | --- |
| N=C(N)c1ccc(OCCCOc2ccc(C(=N)N)cc2)cc1 [propamidine] | 166.04 | 0.053 µg/mL |
| CC1COC(Cn2cncn2)(c2ccc(Oc3ccc(Cl)cc3)cc2Cl)O1 (stereo not shown) [difenoconazole] | 100.00 | 0.088 µg/mL |
